From PMC6934184, “Selective DNA-PKcs inhibition extends the therapeutic index of localized radiotherapy and chemotherapy” (The Journal of Clinical Investigation, 2019) come the findings set out here.

In the assay the target is T1, MET D1228H (Homo sapiens, UniProt P08581, D1228H).
T1 construct: purchased Thermo Fisher Scientific (Life Technologies) SelectScreen
Kind of assay: SelectScreen LanthaScreen. Format: binding. The conditions noted are these: 1 µM. In outline:
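Percent values come from Thermo SelectScreen profiling of NU5455, combining activity and binding assays. CSF1R was run in Z'LYTE format at Km app ATP, and CAMK1 in Adapta format with ATP listed at 10.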
On the technique in general: In TR-FRET formats the signal depends on donor and acceptor labels being close together.

T1 sequence (P08581 25-1390 D1228H): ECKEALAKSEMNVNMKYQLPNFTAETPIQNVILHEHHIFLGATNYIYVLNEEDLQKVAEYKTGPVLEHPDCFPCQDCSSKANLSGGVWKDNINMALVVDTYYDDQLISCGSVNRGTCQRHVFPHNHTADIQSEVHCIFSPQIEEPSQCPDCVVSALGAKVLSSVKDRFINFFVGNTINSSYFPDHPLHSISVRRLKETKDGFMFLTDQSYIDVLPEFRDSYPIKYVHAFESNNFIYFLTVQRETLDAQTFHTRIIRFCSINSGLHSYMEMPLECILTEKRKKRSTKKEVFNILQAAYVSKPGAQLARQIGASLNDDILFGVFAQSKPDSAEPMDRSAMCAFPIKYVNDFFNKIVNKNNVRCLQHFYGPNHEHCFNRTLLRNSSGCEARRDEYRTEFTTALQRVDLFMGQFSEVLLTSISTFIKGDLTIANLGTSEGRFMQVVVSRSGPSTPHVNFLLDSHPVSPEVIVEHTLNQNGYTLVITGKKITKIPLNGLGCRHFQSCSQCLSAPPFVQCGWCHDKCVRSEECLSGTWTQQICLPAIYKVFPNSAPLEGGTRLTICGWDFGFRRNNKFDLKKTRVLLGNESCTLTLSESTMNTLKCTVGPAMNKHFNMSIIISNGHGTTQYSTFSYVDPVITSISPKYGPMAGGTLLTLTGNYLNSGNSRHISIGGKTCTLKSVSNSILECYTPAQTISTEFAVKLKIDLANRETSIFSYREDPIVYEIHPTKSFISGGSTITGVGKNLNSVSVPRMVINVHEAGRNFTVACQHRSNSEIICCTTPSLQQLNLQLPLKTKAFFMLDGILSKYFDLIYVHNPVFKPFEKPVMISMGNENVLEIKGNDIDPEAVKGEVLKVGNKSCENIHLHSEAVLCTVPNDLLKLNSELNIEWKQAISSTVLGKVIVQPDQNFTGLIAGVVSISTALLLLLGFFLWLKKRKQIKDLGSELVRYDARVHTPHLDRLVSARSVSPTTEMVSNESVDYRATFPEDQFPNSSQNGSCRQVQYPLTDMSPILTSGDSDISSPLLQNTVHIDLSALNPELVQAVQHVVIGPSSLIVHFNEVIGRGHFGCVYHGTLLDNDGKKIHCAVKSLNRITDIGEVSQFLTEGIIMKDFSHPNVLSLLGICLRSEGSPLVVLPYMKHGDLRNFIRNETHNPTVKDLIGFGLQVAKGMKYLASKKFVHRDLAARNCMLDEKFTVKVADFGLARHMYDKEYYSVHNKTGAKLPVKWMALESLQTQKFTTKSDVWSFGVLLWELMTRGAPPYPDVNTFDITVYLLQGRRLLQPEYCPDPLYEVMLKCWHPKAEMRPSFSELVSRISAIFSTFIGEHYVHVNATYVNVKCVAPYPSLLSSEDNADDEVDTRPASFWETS

For the compound `CN(C(=O)CN1CCOCC1)c1ccc2sc3c(-c4cccc5c(=O)cc(N6CC7CCC(C6)O7)oc45)cccc3c2c1` [NU5455], the “% displacement” value was -1.5%.
